Reference: ChEMBL document CHEMBL1143442, “Inhibitors of the tyrosine kinase EphB4. Part 2: structure-based discovery and optimisation of 3,5-bis substituted anilinopyrimidines” (Bioorg Med Chem Lett, 2008)

Columns and labels:
[1] = molecular target: T1, Ephrin type-B receptor 4 (Homo sapiens, UniProt P54760); experiment: Inhibition of Myc-His-tagged EphB4 expressed in CHOK1 cells assessed as phosphorylation by ELISA; type: cell-based, CHO-K1
T1 sequence (P54760 whole entry): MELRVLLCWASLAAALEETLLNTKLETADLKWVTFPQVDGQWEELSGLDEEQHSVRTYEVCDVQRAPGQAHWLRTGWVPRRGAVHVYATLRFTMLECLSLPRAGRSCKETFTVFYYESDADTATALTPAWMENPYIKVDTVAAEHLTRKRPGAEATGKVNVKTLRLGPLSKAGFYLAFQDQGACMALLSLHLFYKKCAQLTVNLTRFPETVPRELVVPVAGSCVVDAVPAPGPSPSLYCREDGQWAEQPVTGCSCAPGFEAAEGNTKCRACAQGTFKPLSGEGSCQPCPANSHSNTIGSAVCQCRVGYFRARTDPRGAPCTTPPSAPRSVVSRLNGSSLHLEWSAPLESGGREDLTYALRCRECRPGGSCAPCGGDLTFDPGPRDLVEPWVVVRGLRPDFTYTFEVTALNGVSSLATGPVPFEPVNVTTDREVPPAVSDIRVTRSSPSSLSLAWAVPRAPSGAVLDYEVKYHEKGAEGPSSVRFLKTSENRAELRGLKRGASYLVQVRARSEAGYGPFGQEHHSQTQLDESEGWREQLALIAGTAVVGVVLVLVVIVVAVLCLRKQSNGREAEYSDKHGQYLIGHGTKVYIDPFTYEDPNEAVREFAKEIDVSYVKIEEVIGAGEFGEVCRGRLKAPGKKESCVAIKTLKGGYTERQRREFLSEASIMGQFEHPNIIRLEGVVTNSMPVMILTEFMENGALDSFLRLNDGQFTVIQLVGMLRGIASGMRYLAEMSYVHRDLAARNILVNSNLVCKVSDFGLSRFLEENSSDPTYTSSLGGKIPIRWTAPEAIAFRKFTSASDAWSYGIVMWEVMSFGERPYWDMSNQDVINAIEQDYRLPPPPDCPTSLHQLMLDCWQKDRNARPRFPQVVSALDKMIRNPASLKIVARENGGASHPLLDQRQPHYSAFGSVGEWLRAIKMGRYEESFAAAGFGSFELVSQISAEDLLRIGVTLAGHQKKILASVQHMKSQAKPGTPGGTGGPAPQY

[2] = molecular target: T1, Ephrin type-B receptor 4; experiment: Inhibition of EphB4

Compound	IC50 [1]	IC50 [2]
NS(=O)(=O)c1cccc(Nc2nccc(Nc3c(Cl)ccc4c3OCO4)n2)c1	172 nM	–
NC(=O)c1cc(Nc2nccc(Nc3c(Cl)ccc4c3OCO4)n2)cc(C(N)=O)c1	> 30000 nM	77 nM
CS(=O)(=O)Nc1cc(Nc2nccc(Nc3c(Cl)ccc4c3OCO4)n2)cc(S(N)(=O)=O)c1	14100 nM	1 nM
CS(=O)(=O)Nc1cc(Nc2nccc(Nc3c(Cl)ccc4c3OCO4)n2)cc(NS(C)(=O)=O)c1	7170 nM	15 nM
CS(=O)(=O)c1cc(Nc2nccc(Nc3c(Cl)ccc4c3OCO4)n2)cc(S(C)(=O)=O)c1	209 nM	114 nM
CS(=O)(=O)c1cc(Nc2nccc(Nc3c(Cl)ccc4c3OCO4)n2)cc(C(N)=O)c1	22200 nM	23 nM
CS(=O)(=O)c1cc(Nc2nccc(Nc3c(Cl)ccc4c3OCO4)n2)cc(N2CCOCC2)c1	32 nM	2 nM
CS(=O)(=O)Nc1cc(Nc2nccc(Nc3c(Cl)ccc4c3OCO4)n2)cc(C(N)=O)c1	> 30000 nM	370 nM
NC(=O)c1cccc(Nc2nccc(Nc3c(Cl)ccc4c3OCO4)n2)c1	900 nM	–
NC(=O)c1cc(Nc2nccc(Nc3c(Cl)ccc4c3OCO4)n2)cc(N2CCOCC2)c1	887 nM	13 nM
CS(=O)(=O)Nc1cc(Nc2nccc(Nc3c(Cl)ccc4c3OCO4)n2)cc(S(C)(=O)=O)c1	2050 nM	12 nM
CS(=O)(=O)Nc1cc(Nc2nccc(Nc3c(Cl)ccc4c3OCO4)n2)cc(N2CCOCC2)c1	170 nM	2 nM
